From patent publication US10231453B2, “5-substituted imidazole derivatives” (BAYER CROPSCIENCE AKTIENGESELLSCHAFT, priority 2015, dated 2019)
Read-outs that look alike come from different tables or passages of the source.

Tests used:
Alternaria brassicae = assay: In vivo preventive test on Alternaria brassicae (leaf spot on radish), Examples A and R1; details: for pest or weed control at 500 ppm / pest or weed control at 100 ppm: Alternaria brassicae, 144 h
[1] = Measurement of LogP values by HPLC on reversed phase columns (EEC directive 79/831 Annex V.A8); type: physicochemical; details: method [a]: LC-UV, acidic range, 0.1% formic acid in water and acetonitrile as eluent; Table 1
Description: Measurement of Log P values was performed as outlined above.

Puccinia recondita = assay: In vivo preventive test on Puccinia recondita (brown rust on wheat), Examples C and R3; details: Puccinia recondita, 264 h, preventive spray, evaluated 11 days after inoculation
Septoria tritici = assay: In vivo preventive test on Septoria tritici (leaf spot on wheat), Examples E, Q3 and R5; details: Zymoseptoria tritici, 576 h, preventive spray, evaluated 24 days after inoculation
Sphaerotheca fuliginea = assay: In vivo preventive test on Sphaerotheca fuliginea (powdery mildew on cucurbits), Examples F and R6; details: Podosphaera fuliginea, 360 h, preventive spray, evaluated 15 days after inoculation
Uromyces appendiculatus = assay: In vivo preventive test on Uromyces appendiculatus (bean rust), Examples G and R7; details: 264 h, preventive spray, evaluated 11 days after inoculation
Botrytis cinerea = assay: In vivo preventive test on Botrytis cinerea (grey mould) on gherkin, Examples B, Q1 and R2; details: Botrytis cinerea, 500 ppm of active ingredient, preventive spray, evaluated 4 to 5 days after inoculation, read-out: efficacy
Pyrenophora teres = assay: In vivo preventive test on Pyrenophora teres (net blotch on barley), Examples D, Q2 and R4; details: Pyrenophora teres, 336 h, 500 ppm of active ingredient, preventive spray, evaluated 14 days after inoculation, read-out: efficacy
[2] = system: Blumeria graminis fsp. hordei; assay: In vivo preventive Blumeria test (barley), Example K; details: 168 h, 500 ppm of active ingredient, preventive spray, evaluated 7 days after inoculation, read-out: efficacy
From the text: After the spray coating has been dried, the plants are dusted with spores of Blumeria graminis fsp. hordei.

[3] = 500 ppm of active ingredient, preventive spray, evaluated 6 days after inoculation, read-out: efficacy
[4] = Example R1, rate of application 100 ppm, read-out: Efficacy in %
[5] = Example R1, rate of application 500 ppm, read-out: Efficacy in %
[6] = 500 ppm of active ingredient, wheat, read-out: efficacy
[7] = 500 ppm of active ingredient, gherkin, read-out: efficacy
[8] = 500 ppm of active ingredient, bean, read-out: efficacy

SMILES	chromatographic logP [1]	pest or weed control at 500 ppm (Alternaria brassicae; [3]) [%]	pest or weed control at 500 ppm (Puccinia recondita; [6]) [%]	pest or weed control at 500 ppm (Septoria tritici; [6]) [%]	pest or weed control at 500 ppm (Sphaerotheca fuliginea; [7]) [%]	pest or weed control at 500 ppm (Uromyces appendiculatus; [8]) [%]	pest or weed control at 500 ppm (Botrytis cinerea) [%]	pest or weed control at 500 ppm (Pyrenophora teres) [%]	also measured
OC(Cc1ccc(Cl)cc1F)(Cn1ccc(Cl)c1)C1(Cl)CC1 (racemic) [reference compound]									Efficacy in % (Alternaria brassicae; Example R1, rate of application 100 ppm): 0%; Efficacy in % (Alternaria brassicae; Example R1, rate of application 500 ppm): 0%
Cc1cncn1CC(O)(Cc1ccccc1Cl)C1(Cl)CC1 (stereo not drawn) [Example I-03]	1.72	80 to 89	80 to 89	90 to 100	90 to 100	90 to 100			pest or weed control at 100 ppm (Alternaria brassicae; [4]): 0%; pest or weed control at 500 ppm (Alternaria brassicae; [5]): 83%; pest or weed control at 100 ppm (Puccinia recondita; Example R3, wheat, 100 ppm, read-out: Efficacy in %): 86%; pest or weed control at 500 ppm (Puccinia recondita; Example R3, wheat, 500 ppm, read-out: Efficacy in %): 86%; pest or weed control at 100 ppm (Septoria tritici; Example R5, wheat, 100 ppm, read-out: Efficacy in %): 83%; pest or weed control at 500 ppm (Septoria tritici; Example R5, wheat, 500 ppm, read-out: Efficacy in %): 100%; pest or weed control at 100 ppm (Sphaerotheca fuliginea; Example R6, gherkin, 100 ppm, read-out: Efficacy in %): 85%; pest or weed control at 500 ppm (Sphaerotheca fuliginea; Example R6, gherkin, 500 ppm, read-out: Efficacy in %): 100%; pest or weed control at 100 ppm (Uromyces appendiculatus; Example R7, bean, 100 ppm, read-out: Efficacy in %): 81%; pest or weed control at 500 ppm (Uromyces appendiculatus; Example R7, bean, 500 ppm, read-out: Efficacy in %): 100%
Cc1cncn1CC(O)(C(F)c1ccccc1Cl)C1(Cl)CC1 (stereo not drawn) [Example I-13]	1.75	70 to 79	80 to 89	90 to 100	90 to 100		80 to 89	80 to 89	
OC(Cc1ccccc1Cl)(Cn1cncc1C(F)(F)F)C1(Cl)CC1 (stereo not drawn) [Example I-15]	3.63	90 to 100	80 to 89	90 to 100	90 to 100	90 to 100	70 to 79	90 to 100	
CC(=O)c1cncn1CC(O)(Cc1ccccc1Cl)C1(Cl)CC1 (stereo not drawn) [Example I-19]		80 to 89	90 to 100	90 to 100	90 to 100			80 to 89	
OC(Cc1ccccc1Cl)(Cn1cncc1-c1cccs1)C1(Cl)CC1 (stereo not drawn) [Example I-20]		80 to 89	80 to 89	80 to 89	90 to 100	90 to 100			
Cc1ccccc1CC(O)(Cn1cncc1C#N)C1(Cl)CC1 (stereo not drawn) [Example I-54]		80 to 89	80 to 89	90 to 100	90 to 100	90 to 100	90 to 100	80 to 89	
COc1ccccc1CC(O)(Cn1cncc1C#N)C1(Cl)CC1 (stereo not drawn) [Example I-55]	2.93	80 to 89	90 to 100	90 to 100	90 to 100	90 to 100	90 to 100	80 to 89	
N#Cc1cncn1CC(O)(Cc1ccnc(Cl)c1)C1(Cl)CC1 (stereo not drawn) [Example I-62]	2.04		90 to 100	90 to 100	90 to 100	90 to 100		90 to 100	pest or weed control at 500 ppm [2]: 90 to 100%
OC(Cc1cccc(Cl)c1Cl)(Cn1cncc1Cl)C1(Cl)CC1 (stereo not drawn) [Example I-66]	2.69	70 to 79	90 to 100	90 to 100	90 to 100	90 to 100	70 to 79	90 to 100	
OC(Cc1ccnc(Cl)c1)(Cn1cncc1Cl)C1(Cl)CC1 (stereo not drawn) [Example I-75]	1.62		70 to 79	90 to 100	90 to 100	90 to 100	80 to 89	80 to 89	pest or weed control at 500 ppm [2]: 90 to 100%
N#Cc1cncn1CC(O)(Cc1ccccc1Cl)C1CC1 (stereo not drawn) [Example I-80]	2.57		80 to 89	90 to 100	90 to 100	90 to 100		80 to 89	pest or weed control at 500 ppm [2]: 90 to 100%
CC(C)C(O)(Cc1ccccc1Cl)Cn1cncc1C#N (stereo not drawn) [Example I-82]	2.67		90 to 100	90 to 100	90 to 100	90 to 100	90 to 100	80 to 89	
OC(Cc1ccc(F)c(F)c1)(Cn1cncc1Cl)C1(Cl)CC1 (stereo not drawn) [Example I-110]	2.23		80 to 89	80 to 89	90 to 100	90 to 100	90 to 100	90 to 100	
CC(C)C(O)(Cc1ccc(Cl)cc1F)Cn1cncc1C#N (stereo not drawn) [Example I-118]	2.91		90 to 100	70 to 79	90 to 100	90 to 100	90 to 100	70 to 79	
CC1(C(O)(Cc2ccc(F)cc2F)Cn2cncc2C#N)CC1 (stereo not drawn) [Example I-124]	2.65		90 to 100	90 to 100	90 to 100	90 to 100	90 to 100	90 to 100	
N#Cc1cncn1CC(O)(Cc1ccc(F)cc1F)CC1CC1 (stereo not drawn) [Example I-130]	2.69		90 to 100	90 to 100	90 to 100	90 to 100	90 to 100	70 to 79	
CC1(C(O)(Cc2ccccc2F)Cn2cncc2C#N)CC1 (stereo not drawn) [Example I-131]	2.68		90 to 100	90 to 100	90 to 100	90 to 100	70 to 79	80 to 89	
N#Cc1cncn1CC(O)(Cc1ccccc1F)C1CC1 (stereo not drawn) [Example I-136]			90 to 100	90 to 100	90 to 100	90 to 100			pest or weed control at 500 ppm [2]: 90 to 100%
CC(C)C(O)(Cc1ccccc1F)Cn1cncc1C#N (stereo not drawn) [Example I-139]	2.4		90 to 100	90 to 100	90 to 100	90 to 100	90 to 100	70 to 79	
Cc1cccc(CC(O)(Cn2cncc2C#N)C2(Cl)CC2)c1F (stereo not drawn) [Example I-142]	2.99		80 to 89	70 to 79	90 to 100	90 to 100	80 to 89	80 to 89	
OC(Cc1ccccc1Cl)(Cn1cnc(Br)c1)C1(Cl)CC1 (stereo not drawn) [drawing 59, reference compound]									pest or weed control at 100 ppm (Alternaria brassicae; [4]): 0%; pest or weed control at 500 ppm (Alternaria brassicae; [5]): 40%
Cc1cn(CC(O)(Cc2ccccc2Cl)C2(Cl)CC2)cn1 (stereo not drawn) [drawing 61, reference compound]									pest or weed control at 100 ppm (Alternaria brassicae; [4]): 0%; pest or weed control at 500 ppm (Alternaria brassicae; [5]): 0%
OC(Cc1ccccc1F)(Cn1cnc(Cl)c1)C1(Cl)CC1 (stereo not drawn) [drawing 63, reference compound]									pest or weed control at 100 ppm (Alternaria brassicae; [4]): 0%; pest or weed control at 500 ppm (Alternaria brassicae; [5]): 0%
OC(Cc1ccccc1F)(Cn1ccnc1Cl)C1(Cl)CC1 (stereo not drawn) [drawing 64, reference compound]									pest or weed control at 100 ppm (Alternaria brassicae; [4]): 0%; pest or weed control at 500 ppm (Alternaria brassicae; [5]): 0%
N#Cc1cn(CC(O)(Cc2ccccc2F)C2(Cl)CC2)cn1 (stereo not drawn) [drawing 68, reference compound]									pest or weed control at 100 ppm (Alternaria brassicae; [4]): 0%; pest or weed control at 500 ppm (Alternaria brassicae; [5]): 0%
